# Measured values reported in article PMC7914648 (Pharmaceuticals, 2021).
# “Also recorded” adds a separate entry of the source.
# What was measured:
# SHSY-5Y cells = assay: MTS cell viability assay; format: cell-based; details: 24 h treatment, 20, 10 and 3 μM, absorbance 490 nm, n = 3
# Experimental: SHSY-5Y cells (kindly provided by I. Szabò) were grown in Dulbecco’s Modified Eagle Medium (DMEM, Aurogene) supplemented with 10% (v/v) fetal bovine serum (FBS), 100 U/mL penicillin G, 0.1 mg/mL streptomycin and 5% glutamine.
# SHSY-5Y cells were seeded (10,000 cells/well) in standard 96-well plates in DMEM (200 µL). After 24 h, the growth medium was replaced with a medium containing PAPTP and PAPTPL (from a stock solution in DMSO) at the desired final concentrations (20, 10 and 3 μM). DMEM without additions (CONTROL in Figure 2) was used as negative control. The final concentration of DMSO was 0.1% or lower in all cases (including control). After incubation for 24 h, 20 µL of CellTiter 96 AQUEOUS One solution (Promega, Italy) were added to each well and the plate was incubated at 37 °C in a humidified, 5% CO2 atmosphere for 4 h. Absorbance was measured at 490 nm to detect formazan formation.
# C57BL mice = assay: Observed toxicity after tail vein injection; format: in vivo; details: 5 µmoles/kg bw by tail vein injection in mouse plasma; no proper toxicological study
# Experimental: TAT-PAPTP (5 µmoles/kg bw) was administered by tail vein injection to 2 C57BL mice. […] The observed toxicity was not due to the use of plasma, since mice were not made ill by the administration of PAPTP or An2-PAPTP in the same vehicle (see below, Section 2.7).
# (§1) A stock solution of the peptide-PAPTP conjugates was prepared in DMSO. TAT-PAPTP was administered at 8 and 5 μmol/kg bw and An2-PAPTP only at 5 μmol/kg bw. The calculated quantity of drugs was diluted from the stock solution in saline or mouse plasma to a final volume of 200 μL.
# orthotopic glioma = details: orthotopic murine model; cited from earlier work
# From the text: (§2) In turn, this difficulty may be due at least in part precisely to the TPP group, since the parent compound, PAP-1, is effective against various Central Nervous System (CNS) disorders. This difficulty is not surprising if one compares the characteristics of ...
# [1] = tested on: cultured glioma and glioblastoma cell lines; details: cited from earlier work
# From the text: as §2
# [2] = format: in vivo, mouse; details: PAPTP 5 µmoles/kg bw i.v. in mouse plasma, same procedure
# Experimental: The brains of these mice were analyzed to evaluate the presence of the construct in the tissue (see Section 4.7). Each brain was homogenized and incubated with an equal volume of phosphate-buffered saline (PBS, pH 12.5) for 24 h; 10 volumes of ethyl acetate were then added. After vigorous mixing, the organic phase was collected, concentrated and analyzed via HPLC. This procedure allows hydrolysis of the carbamate bond, leading to the extraction of PAPTPL, which is considered proportional to the amount of peptide-PAPTP conjugate (or its fragments) present in the brain.
# The protocol set up for PAPTPL recovery turned out to be inefficient for the quantification of TAT-PAPTP. An alternative protocol was thus developed. Tissue obtained from untreated mice was weighed and homogenized with PBS pH 7.4 (1 vol) with a potter. The pre-established amount of analyte was added into tissue homogenates and, after thorough vortexing, 1 vol of PBS pH 12.5 was added and the sample was incubated with intermittent vortexing at 60 °C for 24 h. This step is required to allow the hydrolysis of the carbamate bond connecting the peptide and PAPTPL. 10 vol of ethyl acetate were added and, after vortexing and sonication for 2 min, the sample was centrifuged at 12,000× g, 7 min, Room Temperature. The organic phase was collected and concentrated with Hetovac VR-1. ACN was added to the concentrated sample to allow the resuspension of PAPTPL and analyzed via HPLC. Quantification was as described for PAPTPL.
# Brain and liver obtained from untreated mice were weighed and homogenized with PBS pH 7.4 (1 vol) with a potter. The pre-established amount of analyte was added into tissue homogenates and, after thorough vortexing, 5 vol of acetone were added and the sample was sonicated for 2 min. Subsequently, 5 vol of ACN containing 0.1% trifluoracetic acid (TFA) were added and the sample was sonicated for 5 min. The sample was then centrifuged at 12,000× g for 7 min at 4 °C and the supernatant was collected, concentrated with a Hetovac VR-1, and analyzed via HPLC-UV.
# To quantify the amount of An2-PAPTP stuck in the tissue, the pellet remaining after the procedure described above was incubated with intermittent Vortexing at 60 °C for 3 h with PBS pH 12.5/ACN 1:1 and then centrifuged at 12,000× g for 7 min. HPLC-UV analysis of the supernatant, measuring PAPTPL hydrolyzed from the tissue, thus indirectly reflects the amount of An2-PAPTPL in the pellet (Scheme 3). Quantification was as described for PAPTPL.
# as §1
# [3] = Visible precipitation in mouse plasma vehicle; format: physicochemical; details: mouse plasma used as administration vehicle
# From the text: We are not aware of other pharmacological studies utilizing plasma as a vehicle, but a precedent of sorts is provided by some rejuvenation or induced aging studies that examined the systemic effects of heterologous plasma administration.
# [4] = mouse, in vivo, iv; cited from earlier work
# mice = details: cited from earlier work
# Experimental: While in the name of “reduction” a proper toxicological study was not carried out, the toxicity of TAT-PAPTP was evident. Peptide toxicity issues are not often discussed in the literature, but peptides, in particular arginine-rich ones, can be toxic in vivo as well as for cultured cells. […] Here the TAT-PAPTP conjugate was administered at 5 µmol/kg bw. However, conjugates can behave differently and have different toxicities depending on the attached “cargo” [54, 65, 66], as confirmed by the results of the present ...
# [5] = kidneys after tail vein injection; details: C57BL/6 mice, up to 60 min
# [6] = heart after tail vein injection; details: C57BL/6 mice, up to 60 min
# [7] = liver extract after tail vein injection; details: C57BL/6 mice, up to 60 min
# [8] = spleen after tail vein injection; details: C57BL/6 mice, up to 60 min
# [9] = fresh mouse blood, withdrawn from the jugular vein and heparinized; details: C57BL mice, 37 °C, up to 4 h
# [10] = Planar bilayer experiments (membrane permeabilization); details: 2 µM added to cis side, DPhPC bilayer, −40 mV, n = 3
# Experimental: The possible effects of An2-PAPTP and TAT-PAPTP on phospholipid membranes were investigated using the lipid bilayer technique. Bilayers with a capacity of 100–150 pF were prepared “painting” a diphytanoylphosphatidylcholine (DPhPC, Avanti Polar Lipids) solution in octane across a 150-µm hole in a Delrin cuvette (Warner Instruments, a division of Harvard Bioscience, Inc., Holliston, MA, USA). The two compartments separated by the bilayer are identified as cis and trans, and all voltages refer to the cis side, zero being assigned to the trans (grounded) one. One mL of recording solution (150 mM KCl, 10 mM HEPES/KOH, pH 7.4) was placed in both compartments. The contents of both chambers were stirred by magnetic bars when necessary. […] An2-PAPTP or TAT-PAPTP (DMSO stock solution) in a final concentration of 0.5 µM were added to the cis side. The final concentration of DMSO was 0.6%. 2 µM gramicidin from Bacillus brevis (Sigma) was added to the cis side as control.
# Electrical connections were made using Ag/AgCl electrodes and agar salt bridges to minimize eliminate liquid junction potentials. Data were acquired at 10 kHz using a Bilayer Clamp BC-525C amplifier (Warner Instruments, a division of Harvard Bioscience, Inc., Holliston, MA, USA.) and low-pass filtered at 300 Hz for presentation. […]
compound,measurement,setting,value
"O=c1ccc2c(OCCCCOc3ccc(CCC[P+](c4ccccc4)(c4ccccc4)c4ccccc4)cc3)c3ccoc3cc2o1.[I-] [PAPTP, (3-(4-(4-((7-oxo-7H-furo[3,2-g]benzopyran-4-yl)oxy)butoxy)phenyl)propyl) triphenyl phosphonium iodide]","cytotoxic effect (cell viability, MTS reduction assay)",SHSY-5Y cells,marked cytotoxicity
same,observed toxicity in mice,C57BL mice,not made ill; also recorded: No sign of toxicity was observed
same,effect on tumor growth,orthotopic glioma,did not affect tumor growth
same,killing of cultured glioma and glioblastoma cell lines,[1],efficiently killed
same,level in brain after i.v. PAPTP,[2],did not reach detectable levels
same,visible precipitates in plasma,[3],did not form visible precipitates
TWPKHFDKHTFYSILKLGKH [L57],brain input,[4],approximately 0.04 % of the injected dose
TAT47–57: arginine-rich TAT peptide segment,LD50,mice,17.5 µmol/kg bw
HN-ITFFYGGSRGKRNNFKTEEY-OH,fragment found,[5],"PAPTPL-I, 15 min; also recorded: PAPTPL-IT, 15 min; also recorded: PAPTPL-ITF, 15 min"
same,fragment found,[6],"PAPTPL, 15 min; also recorded: PAPTPL-IT, 30 min; also recorded: PAPTPL-ITF, 30 min"
same,fragment found,[7],"PAPTPL-I, 15 min; also recorded: PAPTPL-IT, 15 min; also recorded: PAPTPL-ITF, 15 min"
same,fragment found,[8],"PAPTPL-ITF, 15 min; also recorded: PAPTPL-I, 15 min; also recorded: PAPTPL-IT, 15 min"
same,cleaved bond,[9],"hydrolysis of the carbamate bond connecting the peptide and PAPTPL, 10 min"
gramicidin,appearance of ion currents in planar bilayers (control),[10],expected development of “fast” ion currents
